Here are results for one molecule from paper PMC3907678 (Tumour Biology, 2013).

For the assay, the target named is PDE1 (calmodulin-dependent 3,5-cyclic-nucleotide phosphodiesterase). Kind of assay: CaM-dependent PDE1 cAMP hydrolysis assay, Lineweaver-Burk and Dixon plots. Type of assay: biochemical.

For orientation: Ki means a measure of affinity in units of concentration, obtained from inhibition or displacement. A higher Ki goes with weaker binding. `C[C@@H]1CC[C@H]2[C@@H](C)C(=O)O[C@@H]3O[C@@]4(C)CC[C@@H]1[C@]32OO4` [artemisinin] came in with a Ki of 10 µM. In other words, the double-digit micromolar range.
